Experimental data: ChEMBL document CHEMBL1201862, “PubChem BioAssay data set” (2004)
Activity calls are given as the source filed them.

Key:
[1] = inhibitors of SNCA 5'UTR-driven reporter translation, confirmation, H4 neuroglioma cells, luminescence (AID 1988); format: functional, cell-based
[2] = cytotoxicity toward DRD oncogenic fibroblasts, dose response, cell-based, non-viral oncogenic, luminescence (AID 1934); format: functional; conditions: Homo sapiens
[3] = inhibitors of SNCA 5'UTR-driven translation, confirmation, luminescence, H4 neuroglioblastoma cells, dose confirmation (AID 2454); format: functional, cell-based;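 further: H4 neuroglioblastoma cells carrying an alpha-synuclein 5'UTR luciferase reporter; potency for inhibition of the luciferase signal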
[4] = system: BJ; assay: cells; format: functional, cell-based; conditions: Homo sapiens
[5] = system: BJ; assay: cytotoxicity toward BJ-TERT-LT-ST fibroblasts, dose response, cell-based, RAS-independent, luminescence (AID 1935); format: functional; conditions: Homo sapiens;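 further: BJ fibroblasts immortalized with TERT plus LT and ST oncogenes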
[6] = system: BJ; assay: cytotoxicity toward BJ-TERT fibroblasts, dose response, cell-based, RAS-independent, luminescence (AID 1933); format: functional; conditions: Homo sapiens
[7] = luciferase reporter signal reduction – luminescence, H4-C neuroglioblastoma cells, dose response (AID 2458); format: functional, cell-based;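 further: H4 neuroglioblastoma cells stably carrying a luciferase reporter gene fusion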
[8] = inhibitors of firefly luciferase expression or activity, dose response, H4 neuroglioma cells, luminescence (AID 1990); format: functional, cell-based
[9] = system: J774.A1; assay: Confirmation of image-based Screening Assay for Inhibitors of Phagocytosis. [Related pubchem assays (depositor defined):AID1029, AID1643]; format: functional, cell-based; conditions: Mus musculus
[10] = cells; format: functional, cell-based
[11] = target: Beta-galactosidase (Escherichia coli, UniProt Q8VNN2); assay: beta-galactosidase enzyme inhibitors and activators, dose response, artefact control for CCR6 antagonist project, biochemical, E. coli enzyme, set 3 (AID 504712); format: functional
[12] = target: C-C chemokine receptor type 6 (Homo sapiens, UniProt P51684); assay: CCR6 receptor antagonists, dose response, cell-based, luminescent beta-arrestin readout (AID 504728); format: functional
Chain of C-C chemokine receptor type 6 (P51684 whole entry): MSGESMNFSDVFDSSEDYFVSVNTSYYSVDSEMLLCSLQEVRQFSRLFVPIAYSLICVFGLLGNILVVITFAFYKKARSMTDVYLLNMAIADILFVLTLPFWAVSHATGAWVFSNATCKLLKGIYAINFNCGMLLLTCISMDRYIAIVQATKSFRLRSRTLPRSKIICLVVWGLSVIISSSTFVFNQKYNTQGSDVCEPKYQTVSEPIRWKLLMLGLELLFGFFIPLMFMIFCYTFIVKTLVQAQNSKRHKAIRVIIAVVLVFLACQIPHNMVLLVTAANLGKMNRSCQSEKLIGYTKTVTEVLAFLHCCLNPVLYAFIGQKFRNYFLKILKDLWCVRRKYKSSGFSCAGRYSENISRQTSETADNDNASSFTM

[13] = cells; format: functional
[14] = system: Streptococcus sp. 'group A'; assay: growth inhibition of control SK(-) GAS strain, dose response, counter-screen for streptokinase expression inhibitor project, luminescence, kanamycin, BacTiterGlo, confirmation (AID 1900); format: functional, organism-based
[15] = system: Streptococcus; assay: Group A Streptococcus viability loss, dose response, counter-screen for streptokinase expression inhibitor project, luminescence, BacTiterGlo (AID 1915); format: functional, organism-based;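 further: potency for reduction of bacterial viability or growth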
[16] = THP-1 cell cytotoxicity, dose response, cytotoxicity control for non-replicating M. tuberculosis project (AID 489025); format: functional
[17] = Vero E6 cell cytotoxicity, dose response, cytotoxicity control for non-replicating M. tuberculosis project, secondary assay (AID 492998); format: functional, VeroE6; conditions: Vero C1008
[18] = HepG2 cell cytotoxicity, dose response, cytotoxicity control for non-replicating M. tuberculosis project (AID 489018); format: functional; conditions: Mycobacterium tuberculosis
[19] = Luminescence Cell-Based Dose Retest to Confirm Inhibitors of Cancer Stem Cells. [Related pubchem assays (depositor defined):AID2717, AID2721]; format: functional; conditions: Homo sapiens
[20] = target: ORF 73 (Human herpesvirus 8, UniProt O40947); assay: inhibitors of C-LANA binding to LBS DNA, dose response, biochemical, fluorescence polarization, cherry-picked samples (AID 504725); set-up: species or system Human gammaherpesvirus 8;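 further: fluorescence polarization of a labeled DNA duplex reporting LANA DNA binding; potency is for inhibitors that block LANA binding to the DNA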
Chain of ORF 73 (O40947 whole entry): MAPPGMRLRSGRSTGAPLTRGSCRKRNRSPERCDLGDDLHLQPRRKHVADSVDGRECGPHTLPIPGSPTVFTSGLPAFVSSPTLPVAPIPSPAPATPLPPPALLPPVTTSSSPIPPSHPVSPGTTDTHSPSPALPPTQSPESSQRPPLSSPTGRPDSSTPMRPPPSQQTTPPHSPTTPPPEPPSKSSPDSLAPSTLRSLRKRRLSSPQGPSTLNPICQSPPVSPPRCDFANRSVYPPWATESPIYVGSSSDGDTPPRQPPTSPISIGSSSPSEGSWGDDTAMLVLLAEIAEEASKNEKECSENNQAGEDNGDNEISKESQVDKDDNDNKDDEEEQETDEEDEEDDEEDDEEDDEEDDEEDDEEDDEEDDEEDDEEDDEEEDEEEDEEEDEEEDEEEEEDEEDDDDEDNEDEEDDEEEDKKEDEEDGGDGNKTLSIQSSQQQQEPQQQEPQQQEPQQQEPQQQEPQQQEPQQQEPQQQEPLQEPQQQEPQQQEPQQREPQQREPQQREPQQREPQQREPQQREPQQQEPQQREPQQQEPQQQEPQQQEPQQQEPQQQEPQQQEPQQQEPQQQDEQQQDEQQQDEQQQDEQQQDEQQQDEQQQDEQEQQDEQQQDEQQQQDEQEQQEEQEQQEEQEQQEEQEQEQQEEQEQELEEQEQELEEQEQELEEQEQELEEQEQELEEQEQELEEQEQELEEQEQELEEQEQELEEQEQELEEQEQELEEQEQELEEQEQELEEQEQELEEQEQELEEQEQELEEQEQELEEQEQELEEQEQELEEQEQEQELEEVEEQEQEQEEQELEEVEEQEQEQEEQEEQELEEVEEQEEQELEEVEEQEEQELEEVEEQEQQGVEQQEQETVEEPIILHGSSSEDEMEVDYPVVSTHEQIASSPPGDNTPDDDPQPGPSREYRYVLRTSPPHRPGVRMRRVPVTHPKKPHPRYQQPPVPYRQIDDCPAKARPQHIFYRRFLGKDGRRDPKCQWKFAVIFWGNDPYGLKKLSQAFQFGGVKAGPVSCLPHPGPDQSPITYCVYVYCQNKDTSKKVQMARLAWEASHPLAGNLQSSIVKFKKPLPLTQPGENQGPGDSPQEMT

[21] = target: Lethal factor (Bacillus anthracis, UniProt P15917); assay: High-throughput multiplex microsphere dose response for inhibitors of toxin protease, specifically Lethal Factor protease, compounds from Powder Set 01.; format: functional, Bacillus anthracis str. A2012; conditions: read-out: EC50_MICROM
[22] = target: Ephrin type-A receptor 4 (Mus musculus, UniProt Q03137); assay: inhibitors of EphA4 binding to KYL peptide, primary screen, biochemical, colorimetric, mouse EphA4 (AID 689); format: functional
[23] = target: T1, Zinc finger protein mex-5 (Caenorhabditis elegans, UniProt Q9XUB2); assay: MEX-5/TCR-2 RNA interaction inhibitors, dose response, biochemical, C. elegans, fluorescence polarization (AID 1960)
T1 sequence (Q9XUB2 whole entry): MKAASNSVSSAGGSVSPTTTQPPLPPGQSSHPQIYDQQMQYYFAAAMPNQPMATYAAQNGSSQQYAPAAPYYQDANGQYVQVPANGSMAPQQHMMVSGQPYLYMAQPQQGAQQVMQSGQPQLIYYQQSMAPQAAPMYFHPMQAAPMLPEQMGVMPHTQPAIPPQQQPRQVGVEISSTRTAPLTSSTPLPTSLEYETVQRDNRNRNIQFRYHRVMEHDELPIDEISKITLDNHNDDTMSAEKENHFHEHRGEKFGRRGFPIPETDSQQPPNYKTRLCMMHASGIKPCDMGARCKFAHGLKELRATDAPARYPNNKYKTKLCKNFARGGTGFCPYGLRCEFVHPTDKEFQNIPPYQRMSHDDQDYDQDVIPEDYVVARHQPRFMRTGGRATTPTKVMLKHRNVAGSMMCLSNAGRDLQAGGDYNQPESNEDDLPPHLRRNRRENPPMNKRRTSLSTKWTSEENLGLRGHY

[24] = target: T2, Botulinum neurotoxin type A (Clostridium botulinum (strain Hall / ATCC 3502 / NCTC 13319 / Type A), UniProt P0DPI1); assay: High-throughput multiplex microsphere dose response for inhibitors of toxin protease, specifically Botulinum neurotoxin light chain A protease, compounds from Powder Set 01.; format: functional, Clostridium botulinum A str. ATCC 3502; conditions: read-out: EC50_MICROM
T2 sequence (P0DPI1 2-448 limits assumed): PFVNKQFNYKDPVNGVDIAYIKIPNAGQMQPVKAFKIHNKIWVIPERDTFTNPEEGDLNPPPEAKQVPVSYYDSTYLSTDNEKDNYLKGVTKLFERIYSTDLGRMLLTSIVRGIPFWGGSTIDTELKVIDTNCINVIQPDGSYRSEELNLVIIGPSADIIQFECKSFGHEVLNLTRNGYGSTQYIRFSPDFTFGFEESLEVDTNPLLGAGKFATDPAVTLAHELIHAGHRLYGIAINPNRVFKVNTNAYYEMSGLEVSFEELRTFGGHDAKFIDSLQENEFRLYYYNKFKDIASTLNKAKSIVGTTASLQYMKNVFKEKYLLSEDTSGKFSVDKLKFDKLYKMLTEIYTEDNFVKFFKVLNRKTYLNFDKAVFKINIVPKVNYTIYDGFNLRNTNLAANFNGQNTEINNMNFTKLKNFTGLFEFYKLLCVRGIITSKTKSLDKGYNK

[25] = target: Botulinum neurotoxin type F (Clostridium botulinum, UniProt P30996); assay: High-throughput multiplex microsphere dose response for inhibitors of toxin protease, specifically Botulinum neurotoxin light chain F protease, compounds from Powder Set 01.; format: functional, Clostridium botulinum Bf; conditions: read-out: EC50_MICROM
Chain of Botulinum neurotoxin type F (P30996 1-436 limits assumed): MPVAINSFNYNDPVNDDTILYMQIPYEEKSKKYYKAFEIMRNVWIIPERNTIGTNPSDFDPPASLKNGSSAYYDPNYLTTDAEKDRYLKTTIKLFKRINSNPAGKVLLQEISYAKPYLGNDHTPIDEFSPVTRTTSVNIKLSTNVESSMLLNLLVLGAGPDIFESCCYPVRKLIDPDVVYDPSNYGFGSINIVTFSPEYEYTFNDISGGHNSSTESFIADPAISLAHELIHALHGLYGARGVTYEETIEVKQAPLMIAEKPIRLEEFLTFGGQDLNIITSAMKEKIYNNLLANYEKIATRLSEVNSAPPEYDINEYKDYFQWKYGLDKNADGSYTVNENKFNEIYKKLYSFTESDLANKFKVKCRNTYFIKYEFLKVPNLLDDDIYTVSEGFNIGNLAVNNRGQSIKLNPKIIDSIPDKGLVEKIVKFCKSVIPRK

[26] = target: T2, Botulinum neurotoxin type A; assay: High-throughput multiplex microsphere dose response for inhibitors of toxin protease, specifically Botulinum neurotoxin light chain A protease, compounds from Cherry Pick 01.; format: functional; conditions: read-out: EC50_MICROM
[27] = target: T3, RNA-binding protein pos-1 (Caenorhabditis elegans, UniProt G5EF15); assay: inhibitors of POS-1/mex-3 RNA binding, dose response, biochemical, fluorescence polarization (AID 1964);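 further: purified POS-1 fused to maltose binding protein made in E. coli; potency of compounds blocking POS-1 binding to fluorescent RNA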
T3 sequence (G5EF15 whole entry): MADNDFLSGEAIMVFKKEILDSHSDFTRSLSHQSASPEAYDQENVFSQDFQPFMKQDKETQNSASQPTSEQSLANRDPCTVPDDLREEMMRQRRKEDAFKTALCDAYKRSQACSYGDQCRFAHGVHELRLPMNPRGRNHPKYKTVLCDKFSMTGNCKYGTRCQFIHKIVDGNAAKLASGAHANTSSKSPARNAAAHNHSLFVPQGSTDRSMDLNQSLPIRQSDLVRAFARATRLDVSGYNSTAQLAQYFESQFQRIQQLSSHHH

[28] = target: 1-acylglycerol-3-phosphate O-acyltransferase ABHD5/Perilipin-5 (Homo sapiens, UniProt Q00G26+Q8WTS1); assay: Luminescence-based biochemical high throughput dose response assay for inhibitors of the interaction of the lipase co-activator protein, abhydrolase domain containing 5 (ABHD5) with perilipin-5 (MLDP; PLIN5) (2K validation set). [Related pubchem assays (depositor defined):AID493035, AID493241]
[29] = target: Perilipin-1/ABHD5 (Homo sapiens, UniProt O60240+Q8WTS1); assay: Luminescence-based biochemical high throughput dose response assay for inhibitors of the interaction of the lipase co-activator protein, abhydrolase domain containing 5 (ABHD5) with perilipin-1 (PLIN1) (2K validation set). [Related pubchem assays (depositor defined):AID493027, AID493057]
[30] = target: Genome polyprotein (dengue virus type 2, UniProt P29990); assay: Dengue-2 NS5 methyltransferase inhibitors, primary screen, biochemical, confirmation dose response (AID 588689); format: functional
[31] = target: Voltage-dependent T-type calcium channel subunit alpha-1H (Homo sapiens, UniProt O95180); assay: Cav3.2 T-type channel inhibitors, cell-based, synthetic library set 1, calcium flux (AID 493022); format: functional
Chain of Voltage-dependent T-type calcium channel subunit alpha-1H (O95180 whole entry): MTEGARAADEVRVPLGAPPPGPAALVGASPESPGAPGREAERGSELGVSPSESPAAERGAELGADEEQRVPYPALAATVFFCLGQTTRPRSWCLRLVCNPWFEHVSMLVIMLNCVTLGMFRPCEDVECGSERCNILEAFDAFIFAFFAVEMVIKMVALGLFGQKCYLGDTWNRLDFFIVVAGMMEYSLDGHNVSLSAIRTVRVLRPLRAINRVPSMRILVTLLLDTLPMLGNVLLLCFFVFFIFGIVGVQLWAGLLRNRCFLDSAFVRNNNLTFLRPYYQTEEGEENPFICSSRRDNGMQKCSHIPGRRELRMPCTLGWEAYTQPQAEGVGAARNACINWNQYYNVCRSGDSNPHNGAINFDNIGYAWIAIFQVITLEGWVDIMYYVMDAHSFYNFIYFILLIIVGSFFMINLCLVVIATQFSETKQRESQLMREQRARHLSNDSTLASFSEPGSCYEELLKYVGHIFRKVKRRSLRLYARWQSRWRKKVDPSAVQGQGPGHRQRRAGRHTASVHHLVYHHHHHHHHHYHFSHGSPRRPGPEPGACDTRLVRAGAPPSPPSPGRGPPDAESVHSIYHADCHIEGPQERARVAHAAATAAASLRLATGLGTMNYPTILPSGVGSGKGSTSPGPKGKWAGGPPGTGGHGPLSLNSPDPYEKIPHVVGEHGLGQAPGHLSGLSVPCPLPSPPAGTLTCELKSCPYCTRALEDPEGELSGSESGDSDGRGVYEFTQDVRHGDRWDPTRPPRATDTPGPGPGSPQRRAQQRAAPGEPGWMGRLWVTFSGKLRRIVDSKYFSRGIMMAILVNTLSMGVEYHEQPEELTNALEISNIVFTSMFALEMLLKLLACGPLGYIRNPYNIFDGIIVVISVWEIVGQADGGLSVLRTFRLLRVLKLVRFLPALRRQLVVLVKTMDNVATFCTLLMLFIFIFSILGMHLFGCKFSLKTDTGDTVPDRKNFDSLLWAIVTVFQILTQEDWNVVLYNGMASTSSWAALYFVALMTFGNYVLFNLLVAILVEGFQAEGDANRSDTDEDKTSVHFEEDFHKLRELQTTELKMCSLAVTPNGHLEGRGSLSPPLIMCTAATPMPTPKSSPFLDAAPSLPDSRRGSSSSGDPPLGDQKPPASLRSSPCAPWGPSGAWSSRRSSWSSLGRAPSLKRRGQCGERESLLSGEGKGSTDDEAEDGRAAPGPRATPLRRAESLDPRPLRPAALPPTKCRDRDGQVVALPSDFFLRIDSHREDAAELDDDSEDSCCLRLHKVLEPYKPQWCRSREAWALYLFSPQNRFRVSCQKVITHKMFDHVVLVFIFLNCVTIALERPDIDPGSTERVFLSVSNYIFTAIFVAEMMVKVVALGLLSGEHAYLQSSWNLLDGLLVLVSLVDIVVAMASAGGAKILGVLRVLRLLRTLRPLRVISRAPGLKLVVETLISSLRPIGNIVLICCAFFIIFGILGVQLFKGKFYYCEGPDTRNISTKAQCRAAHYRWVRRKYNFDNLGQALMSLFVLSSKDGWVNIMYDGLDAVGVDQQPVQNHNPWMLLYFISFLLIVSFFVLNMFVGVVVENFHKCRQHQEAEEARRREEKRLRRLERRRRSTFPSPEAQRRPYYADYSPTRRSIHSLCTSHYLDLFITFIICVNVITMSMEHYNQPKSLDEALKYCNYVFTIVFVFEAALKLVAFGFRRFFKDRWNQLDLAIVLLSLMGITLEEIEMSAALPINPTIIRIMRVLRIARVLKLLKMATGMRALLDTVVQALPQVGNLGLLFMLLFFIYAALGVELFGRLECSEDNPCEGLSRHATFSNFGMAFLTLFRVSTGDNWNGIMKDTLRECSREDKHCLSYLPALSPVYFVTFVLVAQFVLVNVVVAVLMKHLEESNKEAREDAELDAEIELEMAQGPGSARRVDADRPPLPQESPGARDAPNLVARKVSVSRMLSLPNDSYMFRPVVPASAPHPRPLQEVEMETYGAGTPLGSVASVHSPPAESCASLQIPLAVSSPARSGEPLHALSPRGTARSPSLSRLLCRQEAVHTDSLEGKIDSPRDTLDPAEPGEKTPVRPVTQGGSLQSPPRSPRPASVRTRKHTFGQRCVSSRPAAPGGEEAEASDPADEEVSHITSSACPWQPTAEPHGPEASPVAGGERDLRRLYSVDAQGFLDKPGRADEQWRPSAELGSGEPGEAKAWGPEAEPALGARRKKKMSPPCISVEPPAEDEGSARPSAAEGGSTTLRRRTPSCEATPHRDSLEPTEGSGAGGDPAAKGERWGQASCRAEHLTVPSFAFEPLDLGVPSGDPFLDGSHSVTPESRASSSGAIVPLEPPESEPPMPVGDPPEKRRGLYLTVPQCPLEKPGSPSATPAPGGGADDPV

[32] = target: Mu-type opioid receptor (Homo sapiens, UniProt P35372); assay: SAR Analysis of Antagonists of the MOR Receptor using an Image-Based Assay - Set 3. [Related pubchem assays (depositor defined):AID1777, AID1785, AID1786, AID1966, AID2133, AID2136, AID2284, AID2285, AID2420]; format: functional
[33] = target: T4, Kappa-type opioid receptor (Homo sapiens, UniProt P41145); assay: SAR analysis of small molecule antagonists of the kappa opioid receptor via a luminescent beta-arrestin assay - Set 4. [Related pubchem assays (depositor defined):AID1777, AID1778, AID1785, AID1786, AID1966, AID2133, AID2136, AID2285]; format: functional
T4 sequence (P41145 whole entry): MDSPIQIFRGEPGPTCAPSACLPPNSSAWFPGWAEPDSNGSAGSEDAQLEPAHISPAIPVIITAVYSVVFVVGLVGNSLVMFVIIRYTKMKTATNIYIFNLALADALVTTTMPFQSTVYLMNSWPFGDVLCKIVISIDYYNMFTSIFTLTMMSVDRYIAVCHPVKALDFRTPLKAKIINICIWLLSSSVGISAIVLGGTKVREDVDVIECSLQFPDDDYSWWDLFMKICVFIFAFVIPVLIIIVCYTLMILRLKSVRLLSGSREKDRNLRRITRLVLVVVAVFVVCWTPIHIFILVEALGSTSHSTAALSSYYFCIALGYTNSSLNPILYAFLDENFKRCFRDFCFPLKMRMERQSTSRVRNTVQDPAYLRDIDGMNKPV

[34] = target: Delta-type opioid receptor (Homo sapiens, UniProt P41143); assay: SAR Analysis of Antagonists of the DOR Receptor using an Image-Based Assay - Set 3. [Related pubchem assays (depositor defined):AID1777, AID1785]; format: functional;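 further: U2OS cells expressing DOR1 and beta-arrestin GFP stimulated with 100 nM SNC80; imaging of GFP-tagged beta-arrestin moving into spots after receptor activation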
[35] = target: T4, Kappa-type opioid receptor; assay: SAR analysis of Antagonists of the Kappa Opioid Receptor (KOR) using an Image-Based Assay - Set 4. [Related pubchem assays (depositor defined):AID1777, AID1785]; format: functional
[36] = target: T4, Kappa-type opioid receptor; assay: SAR analysis of small molecule antagonists of the kappa opioid receptor via a luminescent beta-arrestin assay - Set 6. [Related pubchem assays (depositor defined):AID1777, AID1778, AID1785, AID1786, AID1966, AID2133, AID2136, AID2285]; format: functional

COc1ccccc1C1CC(=O)Nc2cc3c(cc21)OCCO3 (stereo unspecified)
EC50 [1]: < 0.1 µM (active) | EC50 [2]: 2 µM (active) | EC50 [3]: > 12 µM (not active) | EC50 [4]: 19.4 µM (active) | EC50 [5]: 1.4 µM (inconclusive) | EC50 [6]: 7.46 µM (active) | EC50 [7]: 2.17 µM (active) | EC50 [8]: 7.13 µM (inconclusive) | IC50 [9]: > 25 µM (inactive) | EC50 [10]: > 12 µM (not active)

Cc1cc(NCc2ccccn2)n2nc(C)c(-c3ccc(Cl)cc3)c2n1
IC50 [11]: > 66.6 µM (inactive) | IC50 [12]: > 66.6 µM (inactive) | IC50 [13]: 2.1 µM (active) | EC50 [14]: 2.89 µM (active) | EC50 [15]: 6.9 µM (active) | CC50 [16]: 6.61 µM (active) | CC50 [17]: 15.1 µM (active) | CC50 [18]: 3.6 µM (active) | AC50 [19]: 3.86 µM (active)

c1ccc(-c2cn3nc(-c4ccccc4)c(-c4ccccc4)nc3n2)cc1
AC50 [20]: 47.3 µM (active) | EC50 [21]: 1.6 µM (active) | IC50 [22]: 1.2 µM (active) | EC50 [23]: 3.84 µM (active) | EC50 [24]: 0.6 µM (active) | EC50 [25]: 5.3 µM (active) | EC50 [26]: 5.8 µM (active) | EC50 [27]: 2.82 µM (active)

CCOc1ccc(N2C(=O)NC(=O)/C(=C\c3cc(OC)c(OC)cc3[N+](=O)[O-])C2=O)cc1
IC50 [28]: 2.8 µM (active) | IC50 [29]: 2.21 µM (active) | IC50 [30]: 27.6 µM (active)

O=C(COc1ccccc1F)Nc1nnc(-c2ccc3c(c2)OCO3)o1
EC50 [31]: 10 µM (active)

COc1ccc(N2CCN(CCCCNC(=O)Cn3c(=O)c4cccn4c4c(C)ccnc43)CC2)cc1
IC50 [32]: > 32 µM (inactive) | IC50 [33]: 0.907 µM (active) | IC50 [34]: > 32 µM (inactive) | IC50 [35]: 0.00521 µM (active) | IC50 [36]: 1.59 µM (active)
